From PubChem BioAssay AID1963825 (Molecular Pharmacology Branch, DTP, NCI, 2024)

Assay: Anticancer human tumor 997537-175-T-J1-PDC patient-derived colon adenocarcinoma cell line growth inhibition [POLQ]
Conditions: 997537-175-T-J1-PDC complex spheroid viability, combination with POLQ inhibitors; for IC50: curve of first compound; for viability, T/C: stronger effect = lower value
Outline: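 PDC + HUVEC + MSC complex spheroids; POLQ inhibitors ± partner drugs; top conc. at/near clinical Cmax, else 10 microM (SN-38 1 microM), half-log dilutions; 37 degrees C, 5% CO2.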

[1] = second compound 0.0316 µM, first compound 0.0316 µM
[2] = second compound 0.0316 µM, first compound 0.1 µM
[3] = second compound 0.1 µM, first compound 0.0316 µM
[4] = second compound 0.1 µM, first compound 0.1 µM
[5] = second compound 0.316 µM, first compound 0.0316 µM
[6] = second compound 0.316 µM, first compound 0.1 µM
[7] = second compound 1 µM, first compound 0.0316 µM
[8] = second compound 1 µM, first compound 0.1 µM
[9] = second compound 3.16 µM, first compound 0.0316 µM
[10] = second compound 3.16 µM, first compound 0.1 µM
[11] = second compound 10 µM, first compound 0.0316 µM
[12] = second compound 10 µM, first compound 0.1 µM
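Further: luminescence signal used as a surrogate for viable cells; spheroids exposed to drugs for seven days before readout.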

Work on `CC[C@@]1(O)C(=O)OCc2c1cc1n(c2=O)Cc2cc3c(CN(C)C)c(O)ccc3nc2-1` + Cc1cccc(N(C)C(=O)C2C(O)CCN2c2nc(C)cc(C(F)(F)F)c2C#N)c1 yielded an IC50 (second compound 0.0316 µM) of over 0.1 µM, an IC50 (second compound 0.1 µM) of over 0.1 µM and an IC50 (second compound 0.316 µM) of over 0.1 µM. For the same compound, the IC50 (second compound 1 µM) was over 0.1 µM, the IC50 (second compound 3.16 µM) was over 0.1 µM and the IC50 (second compound 10 µM) was over 0.1 µM. The viability, T/C (second compound 0.0316 µM, first compound 0.000316 µM) was 108%, the viability, T/C (second compound 0.0316 µM, first compound 0.001 µM) was 102% and the viability, T/C (second compound 0.0316 µM, first compound 0.00316 µM) was 102%. The viability, T/C (second compound 0.0316 µM, first compound 0.01 µM) was 83.1%, the viability, T/C [1] was 87.9% and the viability, T/C [2] was 71.3%. It also gave a viability, T/C (second compound 0.1 µM, first compound 0.000316 µM) of 94.9%, a viability, T/C (second compound 0.1 µM, first compound 0.001 µM) of 92.4% and a viability, T/C (second compound 0.1 µM, first compound 0.00316 µM) of 92.6%. For the same compound, the viability, T/C (second compound 0.1 µM, first compound 0.01 µM) was 105%, the viability, T/C [3] was 96.2% and the viability, T/C [4] was 64.3%. It also gave a viability, T/C (second compound 0.316 µM, first compound 0.000316 µM) of 90%, a viability, T/C (second compound 0.316 µM, first compound 0.001 µM) of 100% and a viability, T/C (second compound 0.316 µM, first compound 0.00316 µM) of 107%. It also gave a viability, T/C (second compound 0.316 µM, first compound 0.01 µM) of 95.1%, a viability, T/C [5] of 103% and a viability, T/C [6] of 73.7%. The viability, T/C (second compound 1 µM, first compound 0.000316 µM) was 108%, the viability, T/C (second compound 1 µM, first compound 0.001 µM) was 96.7% and the viability, T/C (second compound 1 µM, first compound 0.00316 µM) was 97.5%. The viability, T/C (second compound 1 µM, first compound 0.01 µM) was 111%, the viability, T/C [7] was 83.1% and the viability, T/C [8] was 66.7%. For the same compound, the viability, T/C (second compound 3.16 µM, first compound 0.000316 µM) was 113%, the viability, T/C (second compound 3.16 µM, first compound 0.001 µM) was 101% and the viability, T/C (second compound 3.16 µM, first compound 0.00316 µM) was 101%. It also gave a viability, T/C (second compound 3.16 µM, first compound 0.01 µM) of 89.3%, a viability, T/C [9] of 89.8% and a viability, T/C [10] of 72%. For the same compound, the viability, T/C (second compound 10 µM, first compound 0.000316 µM) was 98%, the viability, T/C (second compound 10 µM, first compound 0.001 µM) was 104% and the viability, T/C (second compound 10 µM, first compound 0.00316 µM) was 102%. The viability, T/C (second compound 10 µM, first compound 0.01 µM) was 97.3%, the viability, T/C [11] was 82.5% and the viability, T/C [12] was 68.9%.
In the case of `Nc1ccn(C2OC(CO)C(O)C2(F)F)c(=O)n1` (centres undefined) + Cc1cccc(N(C)C(=O)C2C(O)CCN2c2nc(C)cc(C(F)(F)F)c2C#N)c1, the IC50 (second compound 0.0316 µM) is reported as over 10 µM, the IC50 (second compound 0.1 µM) is reported as over 10 µM and the IC50 (second compound 0.316 µM) is reported as over 10 µM. For the same compound, the IC50 (second compound 1 µM) was over 10 µM, the IC50 (second compound 3.16 µM) was over 10 µM and the IC50 (second compound 10 µM) was over 10 µM. For the same compound, the viability, T/C [1] was 96.2%, the viability, T/C [2] was 99.7% and the viability, T/C (second compound 0.0316 µM, first compound 0.316 µM) was 91.8%. For the same compound, the viability, T/C (second compound 0.0316 µM, first compound 1 µM) was 89.8%, the viability, T/C (second compound 0.0316 µM, first compound 3.16 µM) was 57.8% and the viability, T/C (second compound 0.0316 µM, first compound 10 µM) was 77%. For the same compound, the viability, T/C [3] was 106%, the viability, T/C [4] was 91.5% and the viability, T/C (second compound 0.1 µM, first compound 0.316 µM) was 85.1%. The viability, T/C (second compound 0.1 µM, first compound 1 µM) was 67.1%, the viability, T/C (second compound 0.1 µM, first compound 3.16 µM) was 90.5% and the viability, T/C (second compound 0.1 µM, first compound 10 µM) was 52.8%. It also gave a viability, T/C [5] of 91.4%, a viability, T/C [6] of 102% and a viability, T/C (second compound 0.316 µM, first compound 0.316 µM) of 79.3%. For the same compound, the viability, T/C (second compound 0.316 µM, first compound 1 µM) was 76.7%, the viability, T/C (second compound 0.316 µM, first compound 3.16 µM) was 80.4% and the viability, T/C (second compound 0.316 µM, first compound 10 µM) was 63.5%. For the same compound, the viability, T/C [7] was 91.8%, the viability, T/C [8] was 102% and the viability, T/C (second compound 1 µM, first compound 0.316 µM) was 73.7%. It also gave a viability, T/C (second compound 1 µM, first compound 1 µM) of 68.4%, a viability, T/C (second compound 1 µM, first compound 3.16 µM) of 66% and a viability, T/C (second compound 1 µM, first compound 10 µM) of 66.7%. The viability, T/C [9] was 95.3%, the viability, T/C [10] was 103% and the viability, T/C (second compound 3.16 µM, first compound 0.316 µM) was 90.4%. For the same compound, the viability, T/C (second compound 3.16 µM, first compound 1 µM) was 92.5%, the viability, T/C (second compound 3.16 µM, first compound 3.16 µM) was 86.1% and the viability, T/C (second compound 3.16 µM, first compound 10 µM) was 70.7%. The viability, T/C [11] was 94.8%, the viability, T/C [12] was 97.2% and the viability, T/C (second compound 10 µM, first compound 0.316 µM) was 96.6%. It also gave a viability, T/C (second compound 10 µM, first compound 1 µM) of 86.9%, a viability, T/C (second compound 10 µM, first compound 3.16 µM) of 47.2% and a viability, T/C (second compound 10 µM, first compound 10 µM) of 82%.
